Source: publication PMC9532755, “Impact of lactisole on the time-intensity profile of selected sweeteners in dependence of the binding site” (Food Chemistry: X, 2022)
Peptide text beside a SMILES is read from it.

Columns and labels:
[1] = test system: perceived sweet intensity (panelists); experiment: Sensory time-intensity (TI) measurement of sweetness by a trained panel; assay type: in vivo, human; settings: for Emax of max. intensity (sensory): scale 0-100, top < 100; for sweetener concentration up to which lactisole effectively inhibited the sweetness: time-intensity curves; for EC50: Homo sapiens, asymmetric five parameter curve fit, read-out: EC50 of max. intensity (sensory); for lingering: time point at which < 50 % of maximum sweetness was reached / onset (time of first maximum intensity): at sweet intensity saturation level: 50 mM cyclamate, 0.5 mM NHDC, 5.0 mM acesulfame K, 5.0 mM aspartame, without lactisole; for mode of inhibition by lactisole (shift of dose-response curve), sensory experiments: combination with 0.46 and 0.92 mM lactisole
Description: All panelists gave their written informed consent for participating in the panel and had to complete a sensory training. […] On a last training day, the evaluation on unstructured scales and the time-dependent evaluation on the computer were trained. All panelists reported to be in good general health condition, and not being under medication or pregnant. At least one hour before every training or tasting, panelists were instructed not to smoke and not to consume intense tasting food or beverage (e.g. coffee, chili, garlic, chewing gum) and to avoid in general strong hunger or fullness as well as strong odors or perfume on test days.
Every test solution was assessed randomly at two different test days with at least 8 panelists participating per replicate. The panelists were free to choose to participate at the different test days. A maximum of five test compounds were assessed in one session. All samples were coded with three-digit random code and presented to the panelists in randomized order. On each test day, panelists were presented five sweet solutions with 0, 25, 50, 100 and 200 g/L sucrose as a scale training for the ratings from “not at all” to “very intensive” sweetness. […] The three minutes of evaluation were chosen to capture as much of the lingering as possible without wearing out the panelists during the evaluation. A total of 350 measuring time points was recorded within the pre-set time frame, especially to see differences in the first seconds of evaluation, which are important for the onset. The panelists were asked to take the sample (20 mL) into their mouth, while starting the timer and simultaneously the evaluation of sweet intensity over the time, and to spit out the sample after ten seconds while continuing the evaluation of the sweetness intensity until the end of the three minutes.
For comparison of the time-dependent properties, the following descriptors were used: the maximum intensity at the first 30 sec of evaluation as “max. intensity”, the time-point of the first maximum intensity as “onset” in sec, […], and the area under the curve from the time-intensity plots as “AUC” as a marker for the overall intensity and duration.
All sensory experiments were conducted at the Christian Doppler Laboratory for Taste Research at the Institute for Physiological Chemistry, University of Vienna, Austria, at room temperature (21 – 23 °C). • Calcium mobilization assay
The statistical analysis and graphical representation were performed with GraphPad Prism 9.0 for sensory results and with SigmaPlot 14.0 for cell experiments. To evaluate the sensory dose–response effects of ascending sweetener concentration w/o lactisole, an asymmetrical five-parameter curve (Richard́s five-parameter dose–response curve) was fitted. The data are presented as means ± SEM from at least 16 single evaluations. Statistical significance between the different test compounds and concentration-dependent effects was assessed by two-way ANOVAs with Tukey post hoc test using Graph Pad Prism. The normal distribution of the data sets was checked by evaluation of the kurtosis (between −7 to + 7) and the skewness (between −3 to + 3). Equal variance was tested using Levenés test. In case the assumptions of a normal distribution and equal variance were not met, the non-parametric ANOVA on ranks (Kruskal-Wallis Test) with Dunn's post-hoc test without the calculation of interaction was applied. A Pearson product moment correlation was conducted to investigate relationships between sensory results and cell responses of the tested sweeteners.

sweetness = test system: sweetness; design: method as in Schiffman et al., 1995; settings: compared to 5 % sucrose; ref Schiffman et al., 1995; cited from earlier work

EC50 ([1]; 0 mM lactisole)	SMILES	Hillslope of max. intensity dose-response (sensory) ([1]; 0 mM lactisole)	Emax of max. intensity (sensory) ([1]; 0 mM lactisole)	sweetener concentration up to which lactisole effectively inhibited the sweetness ([1]; 0.46 mM lactisole)	sweetener concentration up to which lactisole effectively inhibited the sweetness ([1]; 0.92 mM lactisole)	lingering: time point at which < 50 % of maximum sweetness was reached [1]	onset (time of first maximum intensity) [1]	mode of inhibition by lactisole (shift of dose-response curve), sensory experiments [1]	Hillslope of max. intensity dose-response (sensory) ([1]; with 0.46 mM lactisole)	Emax of max. intensity (sensory) ([1]; with 0.46 mM lactisole)	Hillslope of max. intensity dose-response (sensory) ([1]; with 0.92 mM lactisole)	Emax of max. intensity (sensory) ([1]; with 0.92 mM lactisole)	sensory sweetness factor (sweetness)
56 µM	COc1ccc(CCC(=O)c2c(O)cc(O[C@@H]3O[C@H](CO)[C@@H](O)[C@H](O)[C@H]3O[C@@H]3O[C@@H](C)[C@H](O)[C@@H](O)[C@H]3O)cc2O)cc1O [NHDC, neohesperidin dihydrochalcone]	0.94	97.73	up to 0.2 mM	up to 0.5 mM	100.7 s	5.1 s	competitive inhibition	0.89	100.00	0.82	100.00	approximately 900
920 µM	CC1=CC(=O)NS(=O)(=O)O1 [acesulfame K]	1.43	unstable	up to 1 mM	up to 1 mM	44.7 s	4.6 s	–	2.75	71.83	1.45	73.60	–
1090 µM	COC(=O)[C@H](Cc1ccccc1)NC(=O)[C@@H](N)CC(=O)O [aspartame] (H-Asp-Phe-OMe)	2.56	97.05	≤ 1.0 mM	up to 2.0 mM	71.4 s	5.7 s	–	1.28	99.22	1.32	100.00	–
8720 µM	O=S(=O)(O)NC1CCCCC1 [cyclamate]	2.60	96.11	up to 5.0 mM	≤ 10.0 mM	60.1 s	5.1 s	competitive inhibition	2.18	92.37	2.10	unstable	around 30
